Reference: patent publication US20260198495A1, “BINARY INSECTICIDE COMPOSITION AND USE THEREOF” (SHENYANG SINOCHEM AGROCHEMICALS R & D CO., LTD., priority 2022, published 2026)
≈ marks a conversion by molar mass, not a printed value.

Experiments:
Type in all cases: in vivo
[1] = system: 2nd-instar larvae of Mythimna separata; experiment: Joint toxicity of I-72 + beta-cyfluthrin, Example 41, Table 41; conditions: Mythimna separata, foliar; A = compound I-72, B = beta-cyfluthrin; corn leaf dipping; 72 hours; read-out: LC50
Description: Test target: 2nd-instar larvae of Mythimna separata.
(§1) Preparation of the pesticide solution: according to different test requirements, the test samples were accurately weighed respectively with an electronic analytical balance. The technical pesticides were dissolved in acetone, and then diluted with 0.1% Tween 80 water into a series of pesticide solutions with a certain concentration gradient according to the experimental design dosage.
(§2) Experimental method: first, corn leaves were selected and dipped in the prepared pesticide solution for 10 s in the order from low dosage to high dosage according to the experimental design. After natural air-drying in the shade, they were placed in a 9-cm-diameter Petri dish with filter paper, and uniform and healthy test insects were introduced, with 10 insects for each treatment and 3 replicates for each treatment. In addition, a blank control was set up.
(§3) The treated test materials were placed in an observation room, and the temperature, humidity and illumination of the observation room could be adjusted as needed. The number of dead and live insects was investigated 72 hours later. […] Then, the co-toxicity coefficient of each ratio was calculated using the Sun Y-P method to evaluate the mixing effect (the same as in Example 1).

[2] = system: Pyrrhalta aenescens; experiment: Joint toxicity of I-72 + fenobucarb, insect-dipping, Example 24, Table 24; conditions: A = compound I-72, B = fenobucarb, insect-dipping, 24 hours, read-out: LC50
Description: Test target: Pyrrhalta aenescens, a strain reared indoors.
Experimental method: the insect-dipping method was adopted. Pyrrhalta aenescens of the same size were selected, put into an insect-dipping cage, and evenly […] the pesticide solution in the order from low dosage to high dosage according to the experimental design, with dipping for 10 s for each treatment. They were placed in a 9-cm-diameter Petri dish with filter paper. After natural air-drying in the shade, feed was added, with 3 replicates for each treatment. In addition, a blank control was set up.
The treated test materials were placed in an observation room. The total number of test insects and the number of dead insects were investigated 24 hours later. The temperature, humidity and illumination of the observation room could be adjusted as needed. The test conditions, the preparation of the pesticide solution and the evaluation method were the same as those in Example 1.

[3] = system: Frankliniella occidentalis nymphs; experiment: whole plant or invertebrate; conditions: foliar, A = compound I-72, B = dinotefuran, kidney bean leaf dipping, 48 hours, read-out: LC50
Description: Test target: Frankliniella occidentalis nymphs.
as §1
as §2, with “first, kidney bean” for “first, corn”, “with 20-30” for “with 10”
as §3, with “48” for “72”

[4] = system: mixed aphids of Myzus persicae (Sulzer); experiment: Joint toxicity of I-72 + matrine, Example 34, Table 34; conditions: A = compound I-72, B = matrine, spraying on cabbage leaves with aphids, 48 hours, read-out: LC50
Description: Test subject: mixed aphids of Myzus persicae (Sulzer), a sensitive strain reared indoors.
Experimental method: the spraying method on leaves with aphids was adopted. Cabbage leaves with a certain number of Myzus persicae (Sulzer) were taken. The prepared pesticide solutions were evenly sprayed on both the front and back sides of the leaves in the order from low concentration to high concentration according to the experimental design. Then, the leaves were placed in a 6-cm-diameter Petri dish with filter paper. After natural air-drying in the shade, they were placed in the observation room. The experiment had 3 replicates set, and in addition, a blank control was set up. The number of dead and live insects was investigated 48 hours later. The corrected mortality rate was calculated using the Abbott's formula, and the DPS data processing software was used for statistical analysis to calculate the toxicities (LC50 values) of the single test pesticides and the mixtures under the test ratios.
(§4) The test conditions, the preparation of the pesticide solution and the evaluation method were the same as those in Example 1.

[5] = system: Thrips flavus Schrank nymphs; experiment: Joint toxicity of I-72 + flonicamid, Example 78, Table 78; conditions: Thrips flavus; A = compound I-72, B = flonicamid; eggplant seedling spraying; 48 hours; read-out: LC50
Description: Test target: Thrips flavus Schrank nymphs.
as §1
Experimental method: first, eggplant seedlings with Thrips flavus Schrank were selected, and the base number was counted. Then, uniform spraying was performed with the pesticide solution in the order from low to high doses according to the experimental design, with 2 mL for each seedling and 3 replicates for each treatment. In addition, a blank control was set up.
as §3, with “48” for “72”

[6] = system: 2nd-instar nymphs of Frankliniella occidentalis Pergande; experiment: Joint toxicity of I-72 + spinetoram, leaf spraying, Example 11, Table 11; conditions: Frankliniella occidentalis, kidney bean leaf spraying, 48 h, A = compound I-72, B = spinetoram, read-out: LC50
Description: Test subject: 2nd-instar nymphs of Frankliniella occidentalis Pergande, a sensitive strain reared indoors.
Experimental method: the spraying method was adopted. The kidney bean leaves cultivated in the greenhouse were selected, and the petioles were wrapped with moist degreased cotton and sealing film. They were evenly sprayed with the pesticide solution in the order from low dosage to high dosage according to the experimental design, placed in a 6-cm-diameter Petri dish with filter paper. After natural air-drying in the shade, the test insects were introduced, with 20 insects for each treatment and 3 replicates. In addition, a blank control was set up. The number of dead and live insects was investigated 48 hours later. The corrected mortality rate was calculated using the Abbott's formula, and the DPS data processing software was used for statistical analysis to calculate the toxicities (LC50 values) of the single test pesticides and the mixtures under the test ratios.
as §4

CN(C(=O)c1ccc2c(c1)OC(F)(F)O2)c1cccc(C(=O)Nc2c(Br)cc(C(F)(C(F)(F)F)C(F)(F)F)cc2OC(F)F)c1F [Compound I-72]
LC50 [1]: 0.029 µg/mL
LC50 [2]: 1.33 µg/mL
LC50 [3]: 2.41 µg/mL (≈ 3.25 µM)
LC50 [4]: 6.36 µg/mL
LC50 [5]: 1.9 µg/mL
LC50 [6]: 1.94 µg/mL
